Results reported in the supplement of paper PMC11061612.

How the values were obtained:
Assay in all cases: combination Emax (second highest fraction inhibited in the dose matrix, 72 h); higher = more inhibition; extreme values may be limits of the assay
[1] = tested on: ALL-PO (B-Lymphoblastic Leukemia)
Procedure, shortened: (§1)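 Cell lines grown in DMEM/F12 or RPMI with 10% FBS were plated in 1536-well plates and held 24 hours at 37°C, 5% CO2 before 72 hours of exposure to two-drug dose matrices, with DMSO typically at 0.2%. CellTiter-Glo 2.0 luminescence gave viability, which was converted to inhibition. Vehicle wells were set to 0 and blank wells to 1. Combination Emax is the second-highest inhibition in the matrix, and Bliss excess is the observed combination effect minus the expected EA + EB − EA·EB, where EA and EB are the single-agent effects.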

[2] = tested on: BE-13 (T-Lymphoblastic Leukemia)
Procedure, shortened: as §1

BE2-M17 (Neuroblastoma) = tested on: BE2-M17 (Neuroblastoma)
Procedure, shortened: as §1

BPH-1 (Non-Cancerous) = tested on: BPH-1 (Non-Cancerous)
Procedure, shortened: as §1

CAL-72 (Osteosarcoma) = tested on: CAL-72 (Osteosarcoma)
Procedure, shortened: as §1

[3] = tested on: ESS-1 (Other Solid Carcinomas)
Procedure, shortened: as §1

EW-11 (Ewing's Sarcoma) = tested on: EW-11 (Ewing's Sarcoma)
Procedure, shortened: as §1

GAMG (Glioblastoma) = tested on: GAMG (Glioblastoma)
Procedure, shortened: as §1

[4] = tested on: HeLa (Cervical Carcinoma)
Procedure, shortened: as §1

[5] = tested on: Hs-746T (Gastric Carcinoma)
Procedure, shortened: as §1

[6] = tested on: KMRC-20 (Kidney Carcinoma)
Procedure, shortened: as §1

[7] = tested on: KYAE-1 (Esophageal Adenocarcinoma)
Procedure, shortened: as §1

[8] = tested on: L-428 (Hodgkin's Lymphoma)
Procedure, shortened: as §1

[9] = tested on: LCLC-97TM1 (Non-Small Cell Lung Carcinoma)
Procedure, shortened: as §1

LOXIMVI (Melanoma) = tested on: LOXIMVI (Melanoma)
Procedure, shortened: as §1

[10] = tested on: NCI-H524 (Small Cell Lung Carcinoma)
Procedure, shortened: as §1

[11] = tested on: OV-56 (Ovarian Carcinoma)
Procedure, shortened: as §1

[12] = tested on: OVCAR-5 (Ovarian Carcinoma)
Procedure, shortened: as §1

[13] = tested on: SAS (Oral Cavity Carcinoma)
Procedure, shortened: as §1

[14] = tested on: YAPC (Pancreatic Carcinoma)
Procedure, shortened: as §1

## Cc1cc2ncnn2cc1Nc1ncc2c(n1)n(C1CCOCC1)c(=O)n2C [AZD7648] + CCN(CCO)CCCOc1ccc2c(Nc3cc(CC(=O)Nc4cccc(F)c4)[nH]n3)ncnc2c1 [AZD2811] (first compound max 10 µM, 7x7, partner max 1 µM)
[1]
  combination Emax: 0.979
[2]
  combination Emax: 0.764
BE2-M17 (Neuroblastoma)
  combination Emax: 0.379
BPH-1 (Non-Cancerous)
  combination Emax: 0.614
CAL-72 (Osteosarcoma)
  combination Emax: 0.436
[3]
  combination Emax: 0.665
EW-11 (Ewing's Sarcoma)
  combination Emax: 0.507
GAMG (Glioblastoma)
  combination Emax: 0.514
[4]
  combination Emax: 0.285
[5]
  combination Emax: 0.386
[6]
  combination Emax: 0.275
[7]
  combination Emax: 0.207
[8]
  combination Emax: 0.347
[9]
  combination Emax: 0.44
LOXIMVI (Melanoma)
  combination Emax: 0.449
[10]
  combination Emax: 0.985
[11]
  combination Emax: 0.276
[12]
  combination Emax: 0.262
[13]
  combination Emax: 0.255
[14]
  combination Emax: 0.271

## Cc1cc2ncnn2cc1Nc1ncc2c(n1)n(C1CCOCC1)c(=O)n2C [AZD7648] + CN(C)CCCOc1ccc(-c2ccc3ncc4c(c3c2)n(C2CCOCC2)c(=O)n4C)cn1 [AZD0156] (first compound max 10 µM, 7x7, partner max 1 µM)
[1]
  combination Emax: 0.265
[2]
  combination Emax: 0.323
BE2-M17 (Neuroblastoma)
  combination Emax: 0.283
BPH-1 (Non-Cancerous)
  combination Emax: 0.378
CAL-72 (Osteosarcoma)
  combination Emax: 0.399
[3]
  combination Emax: 0.481
EW-11 (Ewing's Sarcoma)
  combination Emax: 0.549
GAMG (Glioblastoma)
  combination Emax: 0.402
[4]
  combination Emax: 0.204
[5]
  combination Emax: 0.36
[6]
  combination Emax: 0.201
[7]
  combination Emax: 0.121
[8]
  combination Emax: 0.37
[9]
  combination Emax: 0.159
LOXIMVI (Melanoma)
  combination Emax: 0.478
[10]
  combination Emax: 0.312
[11]
  combination Emax: 0.224
[12]
  combination Emax: 0.287
[13]
  combination Emax: 0.307
[14]
  combination Emax: 0.209

## Cc1cc2ncnn2cc1Nc1ncc2c(n1)n(C1CCOCC1)c(=O)n2C [AZD7648] + C[C@@H]1COCCN1C2=NC(=NC(=C2)C3(CC3)[S@](=N)(=O)C)C4=C5C=CNC5=NC=C4 [AZD6738] (first compound max 10 µM, 7x7, partner max 10 µM)
[1]
  combination Emax: 0.925
[2]
  combination Emax: 0.757
BE2-M17 (Neuroblastoma)
  combination Emax: 0.844
BPH-1 (Non-Cancerous)
  combination Emax: 0.429
CAL-72 (Osteosarcoma)
  combination Emax: 0.788
[3]
  combination Emax: 0.971
EW-11 (Ewing's Sarcoma)
  combination Emax: 0.748
GAMG (Glioblastoma)
  combination Emax: 0.681
[4]
  combination Emax: 0.575
[5]
  combination Emax: 0.677
[6]
  combination Emax: 0.425
[7]
  combination Emax: 0.204
[8]
  combination Emax: 0.794
[9]
  combination Emax: 0.84
LOXIMVI (Melanoma)
  combination Emax: 0.768
[10]
  combination Emax: 0.759
[11]
  combination Emax: 0.734
[12]
  combination Emax: 0.757
[13]
  combination Emax: 0.856
[14]
  combination Emax: 0.335

## Cc1cc2ncnn2cc1Nc1ncc2c(n1)n(C1CCOCC1)c(=O)n2C [AZD7648] + O=C(c1cc(Cc2n[nH]c(=O)c3ccccc23)ccc1F)N1CCN(C(=O)C2CC2)CC1 [Olaparib] (first compound max 10 µM, 7x7, partner max 10 µM)
[1]
  combination Emax: 0.608
[2]
  combination Emax: 0.255
BE2-M17 (Neuroblastoma)
  combination Emax: 0.414
BPH-1 (Non-Cancerous)
  combination Emax: 0.515
CAL-72 (Osteosarcoma)
  combination Emax: 0.322
[3]
  combination Emax: 0.402
EW-11 (Ewing's Sarcoma)
  combination Emax: 0.582
GAMG (Glioblastoma)
  combination Emax: 0.11
[4]
  combination Emax: 0.22
[5]
  combination Emax: 0.337
[6]
  combination Emax: 0.282
[7]
  combination Emax: 0.0816
[8]
  combination Emax: 0.172
[9]
  combination Emax: 0.199
LOXIMVI (Melanoma)
  combination Emax: 0.479
[10]
  combination Emax: 0.365
[11]
  combination Emax: 0.103
[12]
  combination Emax: 0.231
[13]
  combination Emax: 0.213
[14]
  combination Emax: 0.0464

## Cc1nc(Nc2ncc(C(=O)Nc3c(C)cccc3Cl)s2)cc(N2CCN(CCO)CC2)n1 [Dasatinib] + CC(=O)Nc1cccc(-n2c(=O)n(C3CC3)c(=O)c3c(Nc4ccc(I)cc4F)n(C)c(=O)c(C)c32)c1 [Trametinib] (first compound max 2 µM, 7x7, partner max 1 µM)
[1]
  combination Emax: 0.451
[2]
  combination Emax: 0.607
BE2-M17 (Neuroblastoma)
  combination Emax: 0.868
BPH-1 (Non-Cancerous)
  combination Emax: 0.744
CAL-72 (Osteosarcoma)
  combination Emax: 0.545
[3]
  combination Emax: 0.776
EW-11 (Ewing's Sarcoma)
  combination Emax: 0.157
GAMG (Glioblastoma)
  combination Emax: 0.476
[4]
  combination Emax: 0.241
[5]
  combination Emax: 0.746
[6]
  combination Emax: 0.57
[7]
  combination Emax: 0.0573
[8]
  combination Emax: 0.128
[9]
  combination Emax: 0.904
LOXIMVI (Melanoma)
  combination Emax: 1
[10]
  combination Emax: 0.0954
[11]
  combination Emax: 0.446
[12]
  combination Emax: 0.905
[13]
  combination Emax: 0.713
[14]
  combination Emax: 0.7

## COc1cc2ncnc(Nc3ccc(F)c(Cl)c3)c2cc1OCCCN1CCOCC1 [Gefitinib] + CC(C)n1c(=O)n(C)c2cnc3cc(F)c(-c4ccc(OCCCN5CCCCC5)nc4)cc3c21 [AZD1390] (first compound max 10 µM, 7x7, partner max 0.3 µM)
[1]
  combination Emax: 0.59
[2]
  combination Emax: 0.266
BE2-M17 (Neuroblastoma)
  combination Emax: 0.147
BPH-1 (Non-Cancerous)
  combination Emax: 0.556
CAL-72 (Osteosarcoma)
  combination Emax: 0.109
[3]
  combination Emax: 0.153
EW-11 (Ewing's Sarcoma)
  combination Emax: 0.171
GAMG (Glioblastoma)
  combination Emax: 0.106
[4]
  combination Emax: 0.0627
[5]
  combination Emax: 0.0968
[6]
  combination Emax: 0.173
[7]
  combination Emax: 0.646
[8]
  combination Emax: 0.353
[9]
  combination Emax: 0.0902
LOXIMVI (Melanoma)
  combination Emax: 0.32
[10]
  combination Emax: 0.139
[11]
  combination Emax: 0.0799
[12]
  combination Emax: 0.203
[13]
  combination Emax: 0.401
[14]
  combination Emax: 0.197

## COc1cc2c(cc1OCCCCCOc1cc3c(cc1OC)C(=O)N1C=C(C)C[C@H]1C=N3)N=C[C@@H]1CC(C)=CN1C2=O [SG3199] + O=C(c1cc(Cc2n[nH]c(=O)c3ccccc23)ccc1F)N1CCN(C(=O)C2CC2)CC1 [Olaparib] (first compound max 0.001 µM, 7x7, partner max 10 µM)
[1]
  combination Emax: 0.646
[2]
  combination Emax: 0.283
BE2-M17 (Neuroblastoma)
  combination Emax: 0.299
BPH-1 (Non-Cancerous)
  combination Emax: 0.354
CAL-72 (Osteosarcoma)
  combination Emax: 0.23
[3]
  combination Emax: 0.346
EW-11 (Ewing's Sarcoma)
  combination Emax: 0.582
GAMG (Glioblastoma)
  combination Emax: 0.104
[4]
  combination Emax: 0.159
[5]
  combination Emax: 0.292
[6]
  combination Emax: 0.128
[7]
  combination Emax: 0.128
[8]
  combination Emax: 0.0689
[9]
  combination Emax: 0.12
LOXIMVI (Melanoma)
  combination Emax: 0.187
[10]
  combination Emax: 0.196
[11]
  combination Emax: 0.131
[12]
  combination Emax: 0.0819
[13]
  combination Emax: 0.164
[14]
  combination Emax: 0.0017

## C[C@@H](c1ccc2nccn2c1)n1nnc2ncc(-c3cnn(C)c3)nc21 [Savolitinib] + CC1(C)CCC(CN2CCN(c3ccc(C(=O)NS(=O)(=O)c4ccc(NCC5CCOCC5)c([N+](=O)[O-])c4)c(Oc4cnc5[nH]ccc5c4)c3)CC2)=C(c2ccc(Cl)cc2)C1 [Venetoclax] (first compound max 1 µM, 7x7, partner max 1 µM)
[1]
  combination Emax: 0.337
[2]
  combination Emax: 0.196
BE2-M17 (Neuroblastoma)
  combination Emax: 0.0964
BPH-1 (Non-Cancerous)
  combination Emax: 0.136
CAL-72 (Osteosarcoma)
  combination Emax: 0.181
[3]
  combination Emax: 0.136
EW-11 (Ewing's Sarcoma)
  combination Emax: 0.213
GAMG (Glioblastoma)
  combination Emax: 0.202
[4]
  combination Emax: 0.147
[5]
  combination Emax: 0.664
[6]
  combination Emax: 0.148
[7]
  combination Emax: 0.0925
[8]
  combination Emax: 0.117
[9]
  combination Emax: 0.0631
LOXIMVI (Melanoma)
  combination Emax: 0.232
[10]
  combination Emax: 0.13
[11]
  combination Emax: 0.158
[12]
  combination Emax: 0.0951
[13]
  combination Emax: 0.138
[14]
  combination Emax: 0.113

## C[C@@H](c1ccc2nccn2c1)n1nnc2ncc(-c3cnn(C)c3)nc21 [Savolitinib] + Cc1c2c(nn1C)CSCc1cc(n(C)n1)CSc1cc(c3ccccc3c1)OCCCc1c(C(=O)O)n(C)c3c-2c(Cl)ccc13 [AZD5991] (first compound max 1 µM, 7x7, partner max 1 µM)
[1]
  combination Emax: 1
[2]
  combination Emax: 0.383
BE2-M17 (Neuroblastoma)
  combination Emax: 0.129
BPH-1 (Non-Cancerous)
  combination Emax: 0.199
CAL-72 (Osteosarcoma)
  combination Emax: 0.189
[3]
  combination Emax: 0.16
EW-11 (Ewing's Sarcoma)
  combination Emax: 0.491
GAMG (Glioblastoma)
  combination Emax: 0.167
[4]
  combination Emax: 0.362
[5]
  combination Emax: 0.652
[6]
  combination Emax: 0.195
[7]
  combination Emax: 0.137
[8]
  combination Emax: 0.0947
[9]
  combination Emax: 0.147
LOXIMVI (Melanoma)
  combination Emax: 0.228
[10]
  combination Emax: 0.351
[11]
  combination Emax: 0.151
[12]
  combination Emax: 0.137
[13]
  combination Emax: 0.151
[14]
  combination Emax: 0.11
